Measured values reported in the kinase profiling compilation of Christmann-Franck et al. (2016).

Legend:
Assay in all cases: KINOMEscan competition binding
Conditions in all cases: compound 10.0 µM
CDC42BPG (human) = CDC42BPG (human) (UniProt Q6DT37)
PHKG2 (human) = PHKG2 (human) (UniProt P15735)
LYN (human) = LYN (human) (UniProt P07948)
NLK (human) = NLK (human) (UniProt Q9UBE8)
MET (human) = MET (human) (UniProt P08581)
TNIK (human) = TNIK (human) (UniProt Q9UKE5)
RPS6KA2 KD2 (human) = RPS6KA2 KD2 (human) (UniProt Q15349)
PRKACB (human) = PRKACB (human) (UniProt P22694)
RPS6KA5 KD1 (human) = RPS6KA5 KD1 (human) (UniProt O75582)
Chain of RPS6KA5 KD1 (human) (O75582 whole entry, looked up): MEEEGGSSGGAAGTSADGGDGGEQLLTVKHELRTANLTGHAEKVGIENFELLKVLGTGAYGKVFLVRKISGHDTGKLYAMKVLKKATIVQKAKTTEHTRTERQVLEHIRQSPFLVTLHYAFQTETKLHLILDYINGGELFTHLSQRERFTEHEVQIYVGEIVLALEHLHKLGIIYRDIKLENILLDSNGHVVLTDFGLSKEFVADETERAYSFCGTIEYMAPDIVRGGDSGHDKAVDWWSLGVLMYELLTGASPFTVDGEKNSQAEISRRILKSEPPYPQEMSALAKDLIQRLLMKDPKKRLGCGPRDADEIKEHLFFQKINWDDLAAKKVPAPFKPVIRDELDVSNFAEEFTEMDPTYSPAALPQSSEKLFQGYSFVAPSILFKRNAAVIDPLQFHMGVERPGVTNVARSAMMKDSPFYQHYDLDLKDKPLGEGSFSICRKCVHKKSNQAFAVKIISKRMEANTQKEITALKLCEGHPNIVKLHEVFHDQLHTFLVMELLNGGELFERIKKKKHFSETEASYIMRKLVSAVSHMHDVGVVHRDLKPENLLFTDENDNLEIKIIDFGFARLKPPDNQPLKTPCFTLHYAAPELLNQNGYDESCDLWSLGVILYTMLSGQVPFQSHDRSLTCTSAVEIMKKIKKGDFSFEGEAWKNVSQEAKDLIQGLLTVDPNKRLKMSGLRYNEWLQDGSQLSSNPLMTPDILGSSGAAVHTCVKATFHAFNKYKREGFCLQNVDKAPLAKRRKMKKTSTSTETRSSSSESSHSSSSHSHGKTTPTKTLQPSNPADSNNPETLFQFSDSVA

STK11 (human) = STK11 (human) (UniProt Q15831)
Chain of STK11 (human) (Q15831 whole entry, looked up): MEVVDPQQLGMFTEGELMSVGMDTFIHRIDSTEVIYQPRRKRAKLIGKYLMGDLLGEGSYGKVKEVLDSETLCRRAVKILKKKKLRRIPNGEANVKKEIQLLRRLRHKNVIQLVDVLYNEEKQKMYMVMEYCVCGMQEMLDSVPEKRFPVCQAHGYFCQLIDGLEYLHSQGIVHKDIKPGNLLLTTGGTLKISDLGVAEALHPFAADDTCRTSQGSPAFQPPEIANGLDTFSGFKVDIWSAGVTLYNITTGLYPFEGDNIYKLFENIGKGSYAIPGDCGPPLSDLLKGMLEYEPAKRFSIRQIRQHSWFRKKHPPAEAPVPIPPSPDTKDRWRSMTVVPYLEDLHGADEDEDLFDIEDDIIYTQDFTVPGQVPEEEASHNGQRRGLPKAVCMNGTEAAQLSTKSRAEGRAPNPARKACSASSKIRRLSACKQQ

PRKCH (human) = PRKCH (human) (UniProt P24723)
CDK11B (human) = CDK11B (human) (UniProt P21127)
CSNK1G3 (human) = CSNK1G3 (human) (UniProt Q9Y6M4)
Chain of CSNK1G3 (human) (Q9Y6M4 whole entry, looked up): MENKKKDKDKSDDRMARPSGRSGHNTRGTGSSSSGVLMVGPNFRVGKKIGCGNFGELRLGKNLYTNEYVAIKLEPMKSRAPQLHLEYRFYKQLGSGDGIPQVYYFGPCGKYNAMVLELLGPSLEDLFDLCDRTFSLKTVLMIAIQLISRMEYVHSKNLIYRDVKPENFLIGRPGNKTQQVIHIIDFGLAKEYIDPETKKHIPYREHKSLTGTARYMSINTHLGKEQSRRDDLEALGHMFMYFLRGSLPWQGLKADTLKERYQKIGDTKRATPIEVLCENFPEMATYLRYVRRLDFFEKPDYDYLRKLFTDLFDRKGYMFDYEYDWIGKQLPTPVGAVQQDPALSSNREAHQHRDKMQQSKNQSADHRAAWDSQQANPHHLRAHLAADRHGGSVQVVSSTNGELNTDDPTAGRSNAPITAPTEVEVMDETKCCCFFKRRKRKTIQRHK

RPS6KA4 KD1 (human) = RPS6KA4 KD1 (human) (UniProt O75676)
CDK16 (human) = CDK16 (human) (UniProt Q00536)
PLK4 (human) = PLK4 (human) (UniProt O00444)
ULK3 (human) = ULK3 (human) (UniProt Q6PHR2)
PAK7 (human) = PAK7 (human) (UniProt Q9P286)
Chain of PAK7 (human) (Q9P286 whole entry, looked up): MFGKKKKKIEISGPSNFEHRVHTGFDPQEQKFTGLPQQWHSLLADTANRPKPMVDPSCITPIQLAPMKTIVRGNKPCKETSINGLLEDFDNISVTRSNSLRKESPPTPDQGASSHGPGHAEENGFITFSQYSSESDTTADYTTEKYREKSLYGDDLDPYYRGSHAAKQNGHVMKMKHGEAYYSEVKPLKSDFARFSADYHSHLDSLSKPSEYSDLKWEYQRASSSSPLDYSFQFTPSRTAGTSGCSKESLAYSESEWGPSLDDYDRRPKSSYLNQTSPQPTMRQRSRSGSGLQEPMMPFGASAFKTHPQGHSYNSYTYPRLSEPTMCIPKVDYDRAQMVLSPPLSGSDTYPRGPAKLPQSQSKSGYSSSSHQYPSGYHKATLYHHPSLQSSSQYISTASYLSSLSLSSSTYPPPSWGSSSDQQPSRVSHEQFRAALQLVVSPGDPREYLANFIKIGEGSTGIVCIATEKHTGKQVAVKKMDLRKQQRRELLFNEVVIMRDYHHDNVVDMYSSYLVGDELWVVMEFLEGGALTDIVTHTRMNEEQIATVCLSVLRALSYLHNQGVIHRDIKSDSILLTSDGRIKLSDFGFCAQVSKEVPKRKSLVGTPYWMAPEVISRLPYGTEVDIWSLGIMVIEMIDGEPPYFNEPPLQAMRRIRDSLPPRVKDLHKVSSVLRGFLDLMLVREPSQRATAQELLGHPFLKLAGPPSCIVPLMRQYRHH

CSK (human) = CSK (human) (UniProt P41240)
CHUK (human) = CHUK (human) (UniProt O15111)
AKT3 (human) = AKT3 (human) (UniProt Q9Y243)
Chain of AKT3 (human) (Q9Y243 whole entry, looked up): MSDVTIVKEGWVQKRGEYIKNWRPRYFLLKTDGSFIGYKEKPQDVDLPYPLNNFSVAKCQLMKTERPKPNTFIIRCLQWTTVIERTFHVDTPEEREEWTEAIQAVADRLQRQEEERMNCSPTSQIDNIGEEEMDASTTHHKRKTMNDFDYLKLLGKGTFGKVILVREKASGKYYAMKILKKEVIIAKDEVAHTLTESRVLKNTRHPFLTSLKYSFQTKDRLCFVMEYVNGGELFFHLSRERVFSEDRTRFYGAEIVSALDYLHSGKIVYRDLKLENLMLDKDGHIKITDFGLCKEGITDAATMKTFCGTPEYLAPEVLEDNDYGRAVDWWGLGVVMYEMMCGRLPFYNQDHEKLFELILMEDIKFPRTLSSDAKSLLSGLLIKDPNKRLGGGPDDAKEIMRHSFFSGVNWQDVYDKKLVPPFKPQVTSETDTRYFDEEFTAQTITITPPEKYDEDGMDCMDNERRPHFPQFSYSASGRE

ACVR1 (human) = ACVR1 (human) (UniProt Q04771)
PAK1 (human) = PAK1 (human) (UniProt Q13153)
[1] = target: TYK2 JH1 catalytic (human) (UniProt P29597)
PIP4K2B (human) = PIP4K2B (human) (UniProt P78356)
RIOK2 (human) = RIOK2 (human) (UniProt Q9BVS4)
Chain of RIOK2 (human) (Q9BVS4 whole entry, looked up): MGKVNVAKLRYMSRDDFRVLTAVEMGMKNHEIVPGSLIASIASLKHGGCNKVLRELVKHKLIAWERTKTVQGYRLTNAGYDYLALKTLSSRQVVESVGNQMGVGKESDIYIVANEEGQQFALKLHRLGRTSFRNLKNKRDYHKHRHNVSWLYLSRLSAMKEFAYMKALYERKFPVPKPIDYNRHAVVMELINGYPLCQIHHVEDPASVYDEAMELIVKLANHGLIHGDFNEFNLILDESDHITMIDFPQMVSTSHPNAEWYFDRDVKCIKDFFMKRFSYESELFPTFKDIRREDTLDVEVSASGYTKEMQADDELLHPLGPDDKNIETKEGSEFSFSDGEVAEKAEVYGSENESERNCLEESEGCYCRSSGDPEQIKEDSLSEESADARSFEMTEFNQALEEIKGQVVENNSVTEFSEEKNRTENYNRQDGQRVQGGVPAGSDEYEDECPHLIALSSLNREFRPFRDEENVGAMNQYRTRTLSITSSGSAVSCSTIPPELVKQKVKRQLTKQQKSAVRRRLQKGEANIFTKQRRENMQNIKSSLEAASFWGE

PAK3 (human) = PAK3 (human) (UniProt O75914)
CAMKK2 (human) = CAMKK2 (human) (UniProt Q96RR4)
Chain of CAMKK2 (human) (Q96RR4 whole entry, looked up): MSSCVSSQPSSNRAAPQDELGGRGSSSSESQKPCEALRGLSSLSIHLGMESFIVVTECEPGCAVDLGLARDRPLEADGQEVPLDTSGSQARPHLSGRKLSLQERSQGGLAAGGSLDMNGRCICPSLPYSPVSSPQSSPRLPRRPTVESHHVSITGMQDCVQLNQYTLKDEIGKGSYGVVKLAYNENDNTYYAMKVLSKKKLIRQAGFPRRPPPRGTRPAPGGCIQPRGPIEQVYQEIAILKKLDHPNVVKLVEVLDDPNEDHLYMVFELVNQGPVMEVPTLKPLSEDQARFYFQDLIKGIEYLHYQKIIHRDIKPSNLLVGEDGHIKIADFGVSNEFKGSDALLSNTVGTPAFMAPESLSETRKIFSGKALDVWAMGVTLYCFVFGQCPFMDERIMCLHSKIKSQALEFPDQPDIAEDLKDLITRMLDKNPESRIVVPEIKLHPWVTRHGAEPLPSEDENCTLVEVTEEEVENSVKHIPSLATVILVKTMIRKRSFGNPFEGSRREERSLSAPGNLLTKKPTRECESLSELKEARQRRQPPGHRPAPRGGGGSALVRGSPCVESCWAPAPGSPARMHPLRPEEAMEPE

EPHA7 (human) = EPHA7 (human) (UniProt Q15375)
Chain of EPHA7 (human) (Q15375 whole entry, looked up): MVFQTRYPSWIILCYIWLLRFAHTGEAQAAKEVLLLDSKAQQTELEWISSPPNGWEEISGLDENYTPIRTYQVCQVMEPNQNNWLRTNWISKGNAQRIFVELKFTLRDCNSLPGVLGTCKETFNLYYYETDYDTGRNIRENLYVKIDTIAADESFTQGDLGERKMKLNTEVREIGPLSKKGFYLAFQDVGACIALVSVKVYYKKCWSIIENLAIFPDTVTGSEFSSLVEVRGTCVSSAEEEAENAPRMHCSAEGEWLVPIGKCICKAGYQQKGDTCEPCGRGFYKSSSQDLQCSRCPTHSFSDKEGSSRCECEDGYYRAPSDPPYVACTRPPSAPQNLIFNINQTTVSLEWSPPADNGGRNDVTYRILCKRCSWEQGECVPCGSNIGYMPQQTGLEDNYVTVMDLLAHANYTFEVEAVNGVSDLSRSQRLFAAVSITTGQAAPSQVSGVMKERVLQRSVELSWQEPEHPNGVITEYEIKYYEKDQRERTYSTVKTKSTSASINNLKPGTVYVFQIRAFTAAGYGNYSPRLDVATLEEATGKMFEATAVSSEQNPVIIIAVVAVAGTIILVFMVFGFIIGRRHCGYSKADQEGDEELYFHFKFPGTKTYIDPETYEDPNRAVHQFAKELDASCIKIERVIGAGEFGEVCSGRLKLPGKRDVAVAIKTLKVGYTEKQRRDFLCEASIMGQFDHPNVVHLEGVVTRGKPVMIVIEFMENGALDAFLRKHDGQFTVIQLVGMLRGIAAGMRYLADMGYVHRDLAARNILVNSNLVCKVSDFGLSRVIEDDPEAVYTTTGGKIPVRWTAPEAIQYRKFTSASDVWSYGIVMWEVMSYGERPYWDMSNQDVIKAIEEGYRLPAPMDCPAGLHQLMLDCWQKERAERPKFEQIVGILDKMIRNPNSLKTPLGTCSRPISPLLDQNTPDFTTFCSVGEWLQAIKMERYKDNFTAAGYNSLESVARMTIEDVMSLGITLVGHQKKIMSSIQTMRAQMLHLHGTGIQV

WEE2 (human) = WEE2 (human) (UniProt P0C1S8)
RIPK2 (human) = RIPK2 (human) (UniProt O43353)
ROS1 (human) = ROS1 (human) (UniProt P08922)
RPS6KA3 KD1 (human) = RPS6KA3 KD1 (human) (UniProt P51812)
EGFR (human) = EGFR (human) (UniProt P00533)
[2] = tested on: EGFR (human), P00533 [752-759 del]

kinase still bound, per cent of control (CDC42BPG (human)) [%] | kinase still bound, per cent of control (PHKG2 (human)) [%] | kinase still bound, per cent of control (LYN (human)) [%] | kinase still bound, per cent of control (NLK (human)) [%] | kinase still bound, per cent of control (MET (human)) [%] | kinase still bound, per cent of control (TNIK (human)) [%] | kinase still bound, per cent of control (RPS6KA2 KD2 (human)) [%] | kinase still bound, per cent of control (PRKACB (human)) [%] | kinase still bound, per cent of control (RPS6KA5 KD1 (human)) [%] | kinase still bound, per cent of control (STK11 (human)) [%] | kinase still bound, per cent of control (PRKCH (human)) [%] | kinase still bound, per cent of control (CDK11B (human)) [%] | kinase still bound, per cent of control (CSNK1G3 (human)) [%] | kinase still bound, per cent of control (RPS6KA4 KD1 (human)) [%] | kinase still bound, per cent of control (CDK16 (human)) [%] | kinase still bound, per cent of control (PLK4 (human)) [%] | kinase still bound, per cent of control (PAK7 (human)) [%] | kinase still bound, per cent of control (CSK (human)) [%] | kinase still bound, per cent of control (AKT3 (human)) [%] | kinase still bound, per cent of control (ACVR1 (human)) [%] | Structure (SMILES) | other results
100 | 100 | 22 | 100 | 1 | 19 | 100 | 13 | 100 | 18 | 100 | 100 | 22 | 2.2 | 22 | 4.5 | 100 | 100 | 100 | 100 | CNC(=O)c1ccc(Nc2cc(Nc3ccccc3S(=O)(=O)C(C)C)c3cc[nH]c3n2)nc1 | kinase still bound, per cent of control (RPS6KA3 KD1 (human)): 25%; kinase still bound, per cent of control (EGFR (human)): 100%; kinase still bound, per cent of control (ULK3 (human)): 3.7%; kinase still bound, per cent of control (CHUK (human)): 100%; kinase still bound, per cent of control (PAK1 (human)): 100%; kinase still bound, per cent of control [1]: 0.25%; kinase still bound, per cent of control (PIP4K2B (human)): 3.8%; kinase still bound, per cent of control (RIOK2 (human)): 13%; kinase still bound, per cent of control (PAK3 (human)): 1%; kinase still bound, per cent of control (CAMKK2 (human)): 100%; kinase still bound, per cent of control (EPHA7 (human)): 1.7%; kinase still bound, per cent of control (WEE2 (human)): 100%; kinase still bound, per cent of control (RIPK2 (human)): 100%; kinase still bound, per cent of control (ROS1 (human)): 0.85%; kinase still bound, per cent of control [2]: 100%
100 | 100 | 100 | 100 | 100 | 100 | 100 | 100 | 100 | 100 | 100 | 100 | 100 | 100 | 100 | 100 | 100 | 100 | 100 | 100 | CCN(CC)CCCCNc1ncc2cc(-c3cc(OC)cc(OC)c3)c(NC(=O)NC(C)(C)C)nc2n1 | kinase still bound, per cent of control (RPS6KA3 KD1 (human)): 100%; kinase still bound, per cent of control (PAK1 (human)): 100%; kinase still bound, per cent of control [1]: 100%; kinase still bound, per cent of control (PIP4K2B (human)): 100%; kinase still bound, per cent of control (PAK3 (human)): 100%; kinase still bound, per cent of control (CAMKK2 (human)): 100%; kinase still bound, per cent of control (EPHA7 (human)): 100%; kinase still bound, per cent of control (RIPK2 (human)): 100%; kinase still bound, per cent of control (ROS1 (human)): 100%
100 | 100 | 5 | 100 | 100 | 100 | 100 | 100 | 100 | 100 | 100 | 100 | 100 | 100 | 100 | 100 | 100 | 100 | 100 | 100 | C=CC(=O)Nc1ccc(CN(C(=O)Nc2c(Cl)c(OC)cc(OC)c2Cl)c2cc(Nc3ccc(N4CCN(C)CC4)cc3)ncn2)cc1 | kinase still bound, per cent of control (RPS6KA3 KD1 (human)): 100%; kinase still bound, per cent of control (EGFR (human)): 0.35%; kinase still bound, per cent of control (ULK3 (human)): 100%; kinase still bound, per cent of control (CHUK (human)): 100%; kinase still bound, per cent of control (PAK1 (human)): 100%; kinase still bound, per cent of control [1]: 12%; kinase still bound, per cent of control (PIP4K2B (human)): 100%; kinase still bound, per cent of control (RIOK2 (human)): 100%; kinase still bound, per cent of control (PAK3 (human)): 100%; kinase still bound, per cent of control (CAMKK2 (human)): 100%; kinase still bound, per cent of control (EPHA7 (human)): 100%; kinase still bound, per cent of control (WEE2 (human)): 100%; kinase still bound, per cent of control (RIPK2 (human)): 100%; kinase still bound, per cent of control (ROS1 (human)): 100%; kinase still bound, per cent of control [2]: 2.3%

Structure (SMILES) | kinase still bound, per cent of control (CDC42BPG (human)) [%] | kinase still bound, per cent of control (PHKG2 (human)) [%] | kinase still bound, per cent of control (LYN (human)) [%] | kinase still bound, per cent of control (NLK (human)) [%] | kinase still bound, per cent of control (MET (human)) [%] | kinase still bound, per cent of control (TNIK (human)) [%] | kinase still bound, per cent of control (RPS6KA2 KD2 (human)) [%] | kinase still bound, per cent of control (PRKACB (human)) [%] | kinase still bound, per cent of control (RPS6KA5 KD1 (human)) [%] | kinase still bound, per cent of control (STK11 (human)) [%] | kinase still bound, per cent of control (PRKCH (human)) [%] | kinase still bound, per cent of control (CDK11B (human)) [%] | kinase still bound, per cent of control (CSNK1G3 (human)) [%] | kinase still bound, per cent of control (RPS6KA4 KD1 (human)) [%] | kinase still bound, per cent of control (CDK16 (human)) [%] | kinase still bound, per cent of control (PLK4 (human)) [%] | kinase still bound, per cent of control (PAK7 (human)) [%] | kinase still bound, per cent of control (CSK (human)) [%] | kinase still bound, per cent of control (AKT3 (human)) [%] | kinase still bound, per cent of control (ACVR1 (human)) [%] | other results
Cc1n[nH]c2ccc(-c3cncc(OC[C@@H](N)Cc4c[nH]c5ccccc45)c3)cc12 | 0.8 | 23 | 100 | 100 | 100 | 3.2 | 100 | 0.45 | 11 | 30 | 1.4 | 100 | 0.15 | 100 | 16 | 100 | 16 | 100 | 2.9 | 100 | kinase still bound, per cent of control (ULK3 (human)): 100%; kinase still bound, per cent of control (CHUK (human)): 1%; kinase still bound, per cent of control (PAK1 (human)): 6.2%; kinase still bound, per cent of control [1]: 100%; kinase still bound, per cent of control (PIP4K2B (human)): 5.4%; kinase still bound, per cent of control (RIOK2 (human)): 6.2%; kinase still bound, per cent of control (PAK3 (human)): 100%; kinase still bound, per cent of control (CAMKK2 (human)): 2%; kinase still bound, per cent of control (EPHA7 (human)): 100%; kinase still bound, per cent of control (WEE2 (human)): 100%; kinase still bound, per cent of control (RIPK2 (human)): 100%; kinase still bound, per cent of control (ROS1 (human)): 100%
